From US10335409B2 (priority 2012, dated 2019)
Where two headings read alike, the source gives them in different places.

Experiments:
Format in all cases: cell-based, hepatitis C virus
[1] = tested on: genotype 4a (ED43) stable HCV replicon in Huh-7-derived cells; assay: Stable subgenomic HCV replicon EC50, genotype 4a (Renilla luciferase); details: Hepatitis C virus, 72 h, read-out: EC50 4A RLUC
Procedure, shortened: (§1)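 Compounds, three-fold diluted, were applied to Huh-7-derived cells harbouring luciferase replicons (genotype 1a H77, 1b Con1, 2a JFH-1, 4a ED43, with strain-specific adaptive mutations). Seventy-two hours later, intracellular replication was gauged by Renilla luciferase activity and EC50 derived by regression.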

[2] = tested on: genotype 1b (Con1) stable HCV replicon in Huh-7-derived cells; assay: Stable subgenomic HCV replicon EC50, genotype 1b (Renilla luciferase); details: Hepatitis C virus, stable replicon genotype 1b, 72 h, read-out: EC50 1B RLUC
Procedure, shortened: as §1

[3] = tested on: genotype 1b (Con1) wild type transient HCV replicon in Huh-7-derived cells; assay: Transient-transfected HCV replicon EC50, genotype 1b wild type; details: Hepatitis C virus, 72 h, read-out: EC50 1B WT
[4] = tested on: genotype 1a (H77) wild type transient HCV replicon in Huh-7-derived cells; assay: Transient-transfected HCV replicon EC50, genotype 1a wild type; details: Hepatitis C virus, 72 h, read-out: EC50 1A WT
[5] = tested on: genotype 1a NS3/4a protease inhibitor resistant variant R155K transient HCV replicon in Huh-7-derived cells; assay: Transient-transfected HCV replicon EC50, genotype 1a R155K; details: Hepatitis C virus, 72 h, read-out: EC50 1A R155K, transient-transfected replicon genotype 1a R155K resistant variant, 72 h
[6] = tested on: genotype 3a (S52) wild type transient HCV replicon in Huh-7-derived cells; assay: Transient-transfected HCV replicon EC50, genotype 3a wild type; details: Hepatitis C virus, 72 h, read-out: EC50 3A WT
[7] = tested on: genotype 2a (JFH-1) stable HCV replicon in Huh-7-derived cells; assay: Stable subgenomic HCV replicon EC50, genotype 2a (Renilla luciferase); details: Hepatitis C virus, stable replicon genotype 2a, 72 h, read-out: EC50 2A RLUC
Procedure, shortened: as §1

[8] = tested on: genotype 1a (H77) stable HCV replicon in Huh-7-derived cells; assay: Stable subgenomic HCV replicon EC50, genotype 1a (Renilla luciferase); details: Hepatitis C virus, stable replicon genotype 1a, 72 h, read-out: EC50 1A RLUC
Procedure, shortened: as §1

[9] = tested on: genotype 1b NS3/4a protease inhibitor resistant variant D168A transient HCV replicon in Huh-7-derived cells; assay: Transient-transfected HCV replicon EC50, genotype 1b D168A; details: Hepatitis C virus, 72 h, read-out: EC50 1B D168A, transient-transfected replicon genotype 1b D168A resistant variant, 72 h
[10] = tested on: genotype 3a (S52) stable HCV replicon in Huh-7-derived cells; assay: Stable subgenomic HCV replicon EC50, genotype 3a (Renilla luciferase); details: Hepatitis C virus, 72 h, read-out: EC50 3A RLUC
[11] = transient-transfected replicon genotype 1b wild type
[12] = transient-transfected replicon genotype 1a wild type
[13] = transient-transfected replicon genotype 3a wild type

`CC[C@@H]1[C@@H]2CN(C(=O)[C@H](C(C)(C)C)NC(=O)O[C@@H]3C[C@@H]4C[C@@H]4[C@H]3CCCCC(F)(F)c3nc4ccc(OC)cc4nc3O2)[C@@H]1C(=O)N[C@]1(C(=O)NS(=O)(=O)C2(C)CC2)C[C@H]1C(F)F` [Example 61, (1aS,2aR,6S,9S,10S,11R,23aR,23bS)-6-tert-butyl-N-[(1R,2R)-2-(difluoromethyl)-1-{[(1-methylcyclopropyl)sulfonyl]carbamoyl}cyclopropyl]-10-ethyl-19,19-difluoro-15-methoxy-4,7-dioxo-1a,2,2a,4,5,6,7,10,11,19,20,21,22,23,23a,23b-hexadecahydro-1H,9H-8,11-methanocyclopropa[4′,5′]cyclopenta[1′,2′:18,19][1,10,3,6]dioxadiazacyclononadecino[11,12-b]quinoxaline-9-carboxamide] gave an EC50 [1] of 11 nM, an EC50 [2] of 10 nM and an EC50 [3, 11] of 9.3 nM. The EC50 [4, 12] was 12 nM, the EC50 [5] was 10 nM and the EC50 [6, 13] was 13 nM. For the same molecule, the EC50 [7] was 8.7 nM, the EC50 [8] was 13 nM and the EC50 [9] was 6.7 nM. It also gave an EC50 [10] of 28 nM.

In the case of `C=C[C@@H]1C[C@]1(NC(=O)[C@@H]1[C@H](C)[C@@H]2CN1C(=O)[C@H](C(C)(C)C)NC(=O)O[C@@H]1C[C@H]1CCCCCc1nc3ccc(OC)cc3nc1O2)C(=O)NS(=O)(=O)C1CC1` [Example 48, (1aR,5S,8S,9S,10R,22aR)-5-tert-butyl-N-{(1R,2S)-1-[(cyclopropylsulfonyl)carbamoyl]-2-ethenylcyclopropyl}-14-methoxy-9-methyl-3,6-dioxo-1,1a,3,4,5,6,9,10,18,19,20,21,22,22a-tetradecahydro-8H-7,10-methanocyclopropa[18,19][1,10,3,6]dioxadiazacyclononadecino[11,12-b]quinoxaline-8-carboxamide], the EC50 [1] is reported as 2.2 nM, the EC50 [2] is reported as 1.8 nM and the EC50 [3] is reported as 1.1 nM. For the same molecule, the EC50 [4] was 1.7 nM, the EC50 [5] was 4 nM and the EC50 [6] was 13 nM. The EC50 [7] was 9.7 nM, the EC50 [8] was 2 nM and the EC50 [9] was 6.5 nM. For the same molecule, the EC50 [10] was 73 nM.

Molecule `CC[C@@H]1[C@@H]2CN(C(=O)[C@H](C(C)(C)C)NC(=O)O[C@@H]3C[C@H]3CCCCCc3nc4ccc(OC)cc4nc3O2)[C@@H]1C(=O)N[C@]1(C(=O)NS(=O)(=O)C2(C)CC2)C[C@H]1CC(F)F` [Example 67, (1aR,5S,8S,9S,10R,22aR)-5-tert-butyl-N-[(1R,2S)-2-(2,2-difluoroethyl)-1-{[(1-methylcyclopropyl)sulfonyl]carbamoyl}cyclopropyl]-9-ethyl-14-methoxy-3,6-dioxo-1,1a,3,4,5,6,9,10,18,19,20,21,22,22a-tetradecahydro-8H-7,10-methanocyclopropa[18,19][1,10,3,6]dioxadiazacyclononadecino[11,12-b]quinoxaline-8-carboxamide] has an EC50 [1] of 12 nM, an EC50 [2] of 12 nM and an EC50 [3, 11] of 10 nM. It also gave an EC50 [4, 12] of 14 nM, an EC50 [5] of 42 nM and an EC50 [6, 13] of 107 nM. It also gave an EC50 [7] of 24 nM, an EC50 [8] of 11 nM and an EC50 [9] of 86 nM. The EC50 [10] was 383 nM.

In the case of `CC[C@@H]1[C@@H]2CN(C(=O)[C@H](C(C)(C)C)NC(=O)O[C@@H]3C[C@H]3CCCCCc3nc4ccc(OC)cc4nc3O2)[C@@H]1C(=O)N[C@]1(C(=O)NS(=O)(=O)C2(F)CC2)C[C@H]1C(F)F` [Example 74, (1aR,5S,8S,9S,10R,22aR)-5-tert-butyl-N-[(1R,2R)-2-(difluoromethyl)-1-{[(1-fluorocyclopropyl)sulfonyl]carbamoyl}cyclopropyl]-9-ethyl-14-methoxy-3,6-dioxo-1,1a,3,4,5,6,9,10,18,19,20,21,22,22a-tetradecahydro-8H-7,10-methanocyclopropa[18,19][1,10,3,6]dioxadiazacyclononadecino[11,12-b]quinoxaline-8-carboxamide], the EC50 [1] is reported as 8.3 nM, the EC50 [2] is reported as 5 nM and the EC50 [3, 11] is reported as 2.1 nM. The EC50 [4, 12] was 8.8 nM, the EC50 [5] was 44 nM and the EC50 [6, 13] was 138 nM. The EC50 [7] was 18 nM, the EC50 [8] was 8 nM and the EC50 [9] was 56 nM. The EC50 [10] was 374 nM.

With `COc1ccc2nc3c(nc2c1)O[C@H]1CN(C(=O)[C@H](C(C)(C)C)NC(=O)O[C@@H]2C[C@@H]4C[C@@H]4[C@H]2CCCCC3)[C@H](C(=O)N[C@]2(C(=O)NS(=O)(=O)C3CC3)C[C@H]2CC(F)F)[C@@H]1C` [Example 57, (1aS,2aR,6S,9S,10S,11R,23aR,23bS)-6-tert-butyl-N-[(1R,2S)-1-[(cyclopropylsulfonyl)carbamoyl]-2-(2,2-difluoroethyl)cyclopropyl]-15-methoxy-10-methyl-4,7-dioxo-1a,2,2a,4,5,6,7,10,11,19,20,21,22,23,23a,23b-hexadecahydro-1H,9H-8,11-methanocyclopropa[4′,5′]cyclopenta[1′,2′:18,19][1,10,3,6]dioxadiazacyclononadecino[11,12-b]quinoxaline-9-carboxamide] the EC50 [1] was 4.9 nM, the EC50 [2] was 11 nM and the EC50 [3] was 7.5 nM. For the same molecule, the EC50 [4] was 12 nM, the EC50 [5] was 17 nM and the EC50 [6] was 54 nM. The EC50 [7] was 21 nM, the EC50 [8] was 12 nM and the EC50 [9] was 48 nM. It also gave an EC50 [10] of 166 nM.

`COc1ccc2nc3c(nc2c1)O[C@H]1CN(C(=O)[C@H](C(C)(C)C)NC(=O)O[C@@H]2C[C@@H]4C[C@@H]4[C@H]2CCCCC3)[C@H](C(=O)N[C@]2(C(=O)NS(=O)(=O)C3(C)CC3)C[C@H]2CC(F)F)[C@@H]1C` [Example 58, (1aS,2aR,6S,9S,10S,11R,23aR,23bS)-6-tert-butyl-N-[(1R,2S)-2-(2,2-difluoroethyl)-1-{[(1-methylcyclopropyl)sulfonyl]carbamoyl}cyclopropyl]-15-methoxy-10-methyl-4,7-dioxo-1a,2,2a,4,5,6,7,10,11,19,20,21,22,23,23a,23b-hexadecahydro-1H,9H-8,11-methanocyclopropa[4′,5′]cyclopenta[1′,2′:18,19][1,10,3,6]dioxadiazacyclononadecino[11,12-b]quinoxaline-9-carboxamide] gave an EC50 [1] of 12 nM, an EC50 [2] of 9.7 nM and an EC50 [3] of 14 nM. It also gave an EC50 [4] of 12 nM, an EC50 [5] of 18 nM and an EC50 [6] of 38 nM. It also gave an EC50 [7] of 12 nM, an EC50 [8] of 12 nM and an EC50 [9] of 23 nM. It also gave an EC50 [10] of 134 nM.

`CC[C@@H]1[C@@H]2CN(C(=O)[C@H](C(C)(C)C)NC(=O)O[C@@H]3C[C@H]3CCCCCc3nc4ccc(OC)cc4nc3O2)[C@@H]1C(=O)N[C@]1(C(=O)NS(=O)(=O)C2(C)CC2)C[C@H]1C` [Example 73, (1aR,5S,8S,9S,10R,22aR)-5-tert-butyl-9-ethyl-14-methoxy-N-[(1R,2R)-2-methyl-1-{[(1-methylcyclopropyl)sulfonyl]carbamoyl}cyclopropyl]-3,6-dioxo-1,1a,3,4,5,6,9,10,18,19,20,21,22,22a-tetradecahydro-8H-7,10-methanocyclopropa[18,19][1,10,3,6]dioxadiazacyclononadecino[11,12-b]quinoxaline-8-carboxamide] gave an EC50 [1] of 7.2 nM, an EC50 [2] of 7.5 nM and an EC50 [3, 11] of 6.2 nM. The EC50 [4, 12] was 8.8 nM, the EC50 [5] was 25 nM and the EC50 [6, 13] was 45 nM. For the same molecule, the EC50 [7] was 22 nM, the EC50 [8] was 7.9 nM and the EC50 [9] was 75 nM. It also gave an EC50 [10] of 178 nM.

Work on `CC[C@@H]1[C@@H]2CN(C(=O)[C@H](C(C)(C)C)NC(=O)O[C@]3(C)CCC[C@H]3CCCCCc3nc4ccc(OC)cc4nc3O2)[C@@H]1C(=O)N[C@]1(C(=O)NS(=O)(=O)C2(C)CC2)C[C@H]1CCF` [Example 52, (3aR,7S,10S,11S,12R,24aR)-7-tert-butyl-11-ethyl-N-[(1R,2S)-2-(2-fluoroethyl)-1-{[(1-methylcyclopropyl)sulfonyl]carbamoyl}cyclopropyl]-16-methoxy-3a-methyl-5,8-dioxo-1,2,3,3a,5,6,7,8,11,12,20,21,22,23,24,24a-hexadecahydro-10H-9,12-methanocyclopenta[18,19][1,10,3,6]dioxadiazacyclononadecino[11,12-b]quinoxaline-10-carboxamide] yielded an EC50 [1] of 161 nM, an EC50 [2] of 245 nM and an EC50 [3, 11] of 161 nM. The EC50 [4, 12] was 150 nM, the EC50 [5] was 516 nM and the EC50 [6, 13] was 538 nM. For the same molecule, the EC50 [7] was 380 nM, the EC50 [8] was 195 nM and the EC50 [9] was 887 nM. The EC50 [10] was 2310 nM.
